According to PubChem BioAssay (NCI):
Several values for one entry are separate records, joined by “and”; a condition that tells them apart may be missing. Equal values may be shown once.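 Tested at 5 concentrations; 48 h exposure; 96-well plates; endpoints linearly interpolated, else capped at highest concentration. The concentration for full growth arrest is given as TGI.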

Legend:
Assay in all cases: NCI tumour cell line growth inhibition, 48 h
786-0 renal = tested on: 786-0 renal
A498 renal = tested on: A498 renal
A549 NSCLC = tested on: A549 NSCLC
ACHN renal = tested on: ACHN renal
BT-549 breast = tested on: BT-549 breast
CAKI-1 renal = tested on: CAKI-1 renal
CCRF-CEM leukemia = tested on: CCRF-CEM leukemia
COLO 205 colon = tested on: COLO 205 colon
DU-145 prostate = tested on: DU-145 prostate
EKVX NSCLC = tested on: EKVX NSCLC
HCC-2998 colon = tested on: HCC-2998 colon
HCT-116 colon = tested on: HCT-116 colon
HCT-15 colon = tested on: HCT-15 colon
HL-60(TB) leukemia = tested on: HL-60(TB) leukemia
HOP-62 NSCLC = tested on: HOP-62 NSCLC
HS 578T breast = tested on: HS 578T breast
HT29 colon = tested on: HT29 colon
IGROV1 ovarian = tested on: IGROV1 ovarian
K-562 leukemia = tested on: K-562 leukemia
KM12 colon = tested on: KM12 colon
LOX IMVI melanoma = tested on: LOX IMVI melanoma
M14 melanoma = tested on: M14 melanoma
MALME-3M melanoma = tested on: MALME-3M melanoma
MCF7 breast = tested on: MCF7 breast
MDA-MB-231 breast = tested on: MDA-MB-231 breast
MDA-MB-435 = tested on: MDA-MB-435
MDA-N = tested on: MDA-N
MOLT-4 leukemia = tested on: MOLT-4 leukemia
NCI-H226 lung = tested on: NCI-H226 lung
NCI-H23 lung = tested on: NCI-H23 lung
NCI-H460 lung = tested on: NCI-H460 lung
NCI-H522 lung = tested on: NCI-H522 lung
NCI/ADR-RES ovarian = tested on: NCI/ADR-RES ovarian
OVCAR-3 ovarian = tested on: OVCAR-3 ovarian
OVCAR-5 ovarian = tested on: OVCAR-5 ovarian
OVCAR-8 ovarian = tested on: OVCAR-8 ovarian
PC-3 prostate = tested on: PC-3 prostate
RPMI-8226 leukemia = tested on: RPMI-8226 leukemia
SF-268 CNS = tested on: SF-268 CNS
SF-295 CNS = tested on: SF-295 CNS
SF-539 CNS = tested on: SF-539 CNS
SK-MEL-2 melanoma = tested on: SK-MEL-2 melanoma
SK-MEL-28 melanoma = tested on: SK-MEL-28 melanoma
SK-MEL-5 melanoma = tested on: SK-MEL-5 melanoma
SK-OV-3 ovarian = tested on: SK-OV-3 ovarian
SN12C renal = tested on: SN12C renal
SNB-19 CNS = tested on: SNB-19 CNS
SNB-75 CNS = tested on: SNB-75 CNS
SW-620 colon = tested on: SW-620 colon
T-47D breast = tested on: T-47D breast
TK-10 renal = tested on: TK-10 renal
U251 CNS = tested on: U251 CNS
UACC-257 melanoma = tested on: UACC-257 melanoma
UACC-62 melanoma = tested on: UACC-62 melanoma
UO-31 renal = tested on: UO-31 renal
HOP-92 NSCLC = tested on: HOP-92 NSCLC
OVCAR-4 ovarian = tested on: OVCAR-4 ovarian
RXF 393 renal = tested on: RXF 393 renal

COc1ccccc1C1SCC(=O)N1c1ccc(-c2ccc(-n3c(-c4ccccc4)nc4ccccc4c3=O)cc2)cc1 (stereo unspecified)
TGI (786-0 renal): > 100 µM
TGI (A498 renal): > 100 µM
TGI (A549 NSCLC): > 100 µM
TGI (ACHN renal): > 100 µM
TGI (BT-549 breast): > 100 µM
TGI (CAKI-1 renal): > 100 µM
TGI (CCRF-CEM leukemia): > 100 µM
TGI (COLO 205 colon): > 100 µM
TGI (DU-145 prostate): > 100 µM
TGI (EKVX NSCLC): > 100 µM
TGI (HCC-2998 colon): > 100 µM
TGI (HCT-116 colon): > 100 µM
TGI (HCT-15 colon): > 100 µM
TGI (HL-60(TB) leukemia): > 100 µM
TGI (HOP-62 NSCLC): > 100 µM
TGI (HS 578T breast): > 100 µM
TGI (HT29 colon): > 100 µM
TGI (IGROV1 ovarian): > 100 µM
TGI (K-562 leukemia): > 100 µM
TGI (KM12 colon): > 100 µM
TGI (LOX IMVI melanoma): > 100 µM
TGI (M14 melanoma): > 100 µM
TGI (MALME-3M melanoma): > 100 µM
TGI (MCF7 breast): > 100 µM
TGI (MDA-MB-231 breast): > 100 µM
TGI (MDA-MB-435): > 100 µM
TGI (MDA-N): > 100 µM
TGI (MOLT-4 leukemia): > 100 µM
TGI (NCI-H226 lung): > 100 µM
TGI (NCI-H23 lung): > 100 µM
TGI (NCI-H460 lung): > 100 µM
TGI (NCI-H522 lung): > 100 µM
TGI (NCI/ADR-RES ovarian): > 100 µM
TGI (OVCAR-3 ovarian): > 100 µM
TGI (OVCAR-5 ovarian): > 100 µM
TGI (OVCAR-8 ovarian): > 100 µM
TGI (PC-3 prostate): > 100 µM
TGI (RPMI-8226 leukemia): > 100 µM
TGI (SF-268 CNS): > 100 µM
TGI (SF-295 CNS): > 100 µM
TGI (SF-539 CNS): > 100 µM
TGI (SK-MEL-2 melanoma): > 100 µM
TGI (SK-MEL-28 melanoma): > 100 µM
TGI (SK-MEL-5 melanoma): > 100 µM
TGI (SK-OV-3 ovarian): > 100 µM
TGI (SN12C renal): > 100 µM
TGI (SNB-19 CNS): > 100 µM
TGI (SNB-75 CNS): > 100 µM
TGI (SW-620 colon): > 100 µM
TGI (T-47D breast): > 100 µM
TGI (TK-10 renal): > 100 µM
TGI (U251 CNS): > 100 µM
TGI (UACC-257 melanoma): > 100 µM
TGI (UACC-62 melanoma): > 100 µM
TGI (UO-31 renal): > 100 µM

O=C1NC(N/N=C\C(O)C(O)C(O)CO)=N/C1=C/c1ccc(Cl)cc1 (stereo unspecified)
TGI (786-0 renal): > 100 µM
TGI (A498 renal): > 100 µM
TGI (A549 NSCLC): > 100 µM
TGI (ACHN renal): 52.7 µM and 48.1 µM
TGI (BT-549 breast): > 100 µM
TGI (CAKI-1 renal): > 100 µM
TGI (CCRF-CEM leukemia): > 100 µM
TGI (COLO 205 colon): > 100 µM
TGI (DU-145 prostate): > 100 µM
TGI (EKVX NSCLC): > 100 µM
TGI (HCT-116 colon): > 100 µM
TGI (HCT-15 colon): 52.8 µM
TGI (HL-60(TB) leukemia): > 100 µM
TGI (HOP-62 NSCLC): > 100 µM
TGI (HOP-92 NSCLC): > 100 µM
TGI (HS 578T breast): > 100 µM
TGI (HT29 colon): > 100 µM
TGI (IGROV1 ovarian): > 100 µM
TGI (K-562 leukemia): > 100 µM
TGI (KM12 colon): > 100 µM
TGI (LOX IMVI melanoma): > 100 µM
TGI (M14 melanoma): 77.8 µM
TGI (MALME-3M melanoma): 80.2 µM and > 100 µM
TGI (MCF7 breast): > 100 µM
TGI (MDA-MB-231 breast): > 100 µM
TGI (MDA-MB-435): > 100 µM
TGI (MDA-N): > 100 µM
TGI (MOLT-4 leukemia): 55.6 µM and 61.4 µM
TGI (NCI-H226 lung): > 100 µM
TGI (NCI-H23 lung): > 100 µM
TGI (NCI-H460 lung): > 100 µM
TGI (NCI-H522 lung): > 100 µM
TGI (NCI/ADR-RES ovarian): > 100 µM
TGI (OVCAR-3 ovarian): 58.3 µM and 91.9 µM
TGI (OVCAR-4 ovarian): 57 µM
TGI (OVCAR-5 ovarian): > 100 µM
TGI (OVCAR-8 ovarian): > 100 µM
TGI (PC-3 prostate): > 100 µM
TGI (RPMI-8226 leukemia): > 100 µM and 94.3 µM
TGI (RXF 393 renal): > 100 µM
TGI (SF-268 CNS): > 100 µM
TGI (SF-295 CNS): > 100 µM
TGI (SF-539 CNS): > 100 µM
TGI (SK-MEL-2 melanoma): > 100 µM
TGI (SK-MEL-28 melanoma): > 100 µM
TGI (SK-MEL-5 melanoma): > 100 µM
TGI (SK-OV-3 ovarian): > 100 µM
TGI (SN12C renal): > 100 µM
TGI (SNB-19 CNS): > 100 µM
TGI (SNB-75 CNS): > 100 µM
TGI (SW-620 colon): > 100 µM
TGI (T-47D breast): > 100 µM
TGI (TK-10 renal): > 100 µM
TGI (U251 CNS): > 100 µM
TGI (UACC-257 melanoma): > 100 µM
TGI (UO-31 renal): > 100 µM
